System: patients with advanced renal cell carcinoma
Conditions: in vivo
Method: Treatment modifications, including interruptions and dose reductions, were allowed to manage adverse events. […] Patients were allowed to continue study treatment beyond radiographic progression at the discretion of the investigator. On-study crossover between treatment groups was not permitted. Safety evaluations, including physical examination, vital signs, and laboratory assessments, were conducted every 2 weeks for the first 8 weeks and then every 4 weeks thereafter. ECG assessments were performed every 4 weeks for the first 8 weeks and then every 12 weeks. A safety follow-up visit was scheduled 30 days after treatment discontinuation. Adverse events were assessed by investigators and graded according to CTCAE version 4.0.
Safety analyses were limited to patients who received any amount of study treatment.

With COc1cc2nccc(Oc3ccc(NC(=O)C4(C(=O)Nc5ccc(F)cc5)CC4)cc3)c2cc1OC [cabozantinib] the “Abdominal pain, Grade 1-2” value (human) was 48 (15) n (%), the “Abdominal pain, Grade 3” value (human) was 12 (4) n (%) and the “Abdominal pain, Grade 4” value (human) was 0 n (%). For the same compound, the “Alanine aminotransferase increased, Grade 1-2” value (human) was 47 (14) n (%), the “Alanine aminotransferase increased, Grade 3” value (human) was 7 (2) n (%) and the “Alanine aminotransferase increased, Grade 4” value (human) was 1 (<1) n (%). For the same compound, the “Anemia, Grade 1-2” value (human) was 42 (13) n (%), the “Anemia, Grade 3” value (human) was 19 (6) n (%) and the “Anemia, Grade 4” value (human) was 0 n (%). For the same compound, the “Any AE, Grade 1-2” value (human) was 70 (21) n (%), the “Any AE, Grade 3” value (human) was 210 (63) n (%) and the “Any AE, Grade 4” value (human) was 25 (8) n (%). The “Arthralgia, Grade 1-2” value (human) was 43 (13) n (%), the “Arthralgia, Grade 3” value (human) was 1 (<1) n (%) and the “Arthralgia, Grade 4” value (human) was 0 n (%). The “Aspartate aminotransferase increased, Grade 1-2” value (human) was 55 (17) n (%), the “Aspartate aminotransferase increased, Grade 3” value (human) was 5 (2) n (%) and the “Aspartate aminotransferase increased, Grade 4” value (human) was 0 n (%). For the same compound, the “Asthenia, Grade 1-2” value (human) was 49 (15) n (%), the “Asthenia, Grade 3” value (human) was 15 (5) n (%) and the “Asthenia, Grade 4” value (human) was 0 n (%). For the same compound, the “Back pain, Grade 1-2” value (human) was 54 (16) n (%), the “Back pain, Grade 3” value (human) was 8 (2) n (%) and the “Back pain, Grade 4” value (human) was 0 n (%). The “Blood creatinine increased, Grade 1-2” value (human) was 17 (5) n (%), the “Blood creatinine increased, Grade 3” value (human) was 1 (<1) n (%) and the “Blood creatinine increased, Grade 4” value (human) was 0 n (%). For the same compound, the “Constipation, Grade 1-2” value (human) was 89 (27) n (%), the “Constipation, Grade 3” value (human) was 1 (<1) n (%) and the “Constipation, Grade 4” value (human) was 0 n (%). The “Cough, Grade 1-2” value (human) was 67 (20) n (%), the “Cough, Grade 3” value (human) was 1 (<1) n (%) and the “Cough, Grade 4” value (human) was 0 n (%). For the same compound, the “Decreased appetite, Grade 1-2” value (human) was 146 (44) n (%), the “Decreased appetite, Grade 3” value (human) was 10 (3) n (%) and the “Decreased appetite, Grade 4” value (human) was 0 n (%). The “Diarrhea, Grade 1-2” value (human) was 206 (62) n (%), the “Diarrhea, Grade 3” value (human) was 43 (13) n (%) and the “Diarrhea, Grade 4” value (human) was 0 n (%). The “Diarrhea, all grades” value (human) was 249 (75%) n (%), the “Diarrhea, grade 3 or 4” value (human) was 43 [13%] n [%] and the “Discontinuation due to a primary reason of AE (excluding disease progression)” value (human) was 10%. For the same compound, the “Dizziness, Grade 1-2” value (human) was 41 (12) n (%), the “Dizziness, Grade 3” value (human) was 1 (<1) n (%) and the “Dizziness, Grade 4” value (human) was 0 n (%). The “Dry skin, Grade 1-2” value (human) was 37 (11) n (%), the “Dry skin, Grade 3” value (human) was 0 n (%) and the “Dry skin, Grade 4” value (human) was 0 n (%). For the same compound, the “Dysgeusia, Grade 1-2” value (human) was 80 (24) n (%), the “Dysgeusia, Grade 3” value (human) was 0 n (%) and the “Dysgeusia, Grade 4” value (human) was 0 n (%). The “Dyspepsia, Grade 1-2” value (human) was 40 (12) n (%), the “Dyspepsia, Grade 3” value (human) was 1 (<1) n (%) and the “Dyspepsia, Grade 4” value (human) was 0 n (%). The “Dysphonia, Grade 1-2” value (human) was 68 (21) n (%), the “Dysphonia, Grade 3” value (human) was 2 (<1) n (%) and the “Dysphonia, Grade 4” value (human) was 0 n (%). The “Dyspnoea, Grade 1-2” value (human) was 56 (17) n (%), the “Dyspnoea, Grade 3” value (human) was 10 (3) n (%) and the “Dyspnoea, Grade 4” value (human) was 0 n (%). For the same compound, the “Edema peripheral, Grade 1-2” value (human) was 39 (12) n (%), the “Edema peripheral, Grade 3” value (human) was 0 n (%) and the “Edema peripheral, Grade 4” value (human) was 0 n (%). For the same compound, the “Epistaxis, Grade 1-2” value (human) was 14 (4) n (%), the “Epistaxis, Grade 3” value (human) was 0 n (%) and the “Epistaxis, Grade 4” value (human) was 0 n (%). For the same compound, the “Fatigue, Grade 1-2” value (human) was 159 (48) n (%), the “Fatigue, Grade 3” value (human) was 36 (11) n (%) and the “Fatigue, Grade 4” value (human) was 0 n (%). The “Fatigue, all grades” value (human) was 195 (59%) n (%), the “Fatigue, grade 3 or 4” value (human) was 36 [11%] n [%] and the “Flatulence, Grade 1-2” value (human) was 33 (10) n (%). For the same compound, the “Flatulence, Grade 3” value (human) was 0 n (%), the “Flatulence, Grade 4” value (human) was 0 n (%) and the “Grade 3 and 4 adverse events: Hyperglycemia, %” value (human) was 1 (1) %. The “Grade 3 or 4 Adverse Events: Hypercalcemia (event of interest), %” value (human) was “(1) %”, the “Grade 3 or 4 Adverse Events: Hyperglycemia, %” value (human) was “(1) %” and the “Grade 3 or 4 Adverse Events: PPES, %” value (human) was “(8) %”. The “Grade 3 or 4 adverse events” value (human) was 235 (71%) n (%), the “Grade 5 adverse events regardless of causality” value (human) was 7.9% and the “Headache, Grade 1-2” value (human) was 43 (13) n (%). The “Headache, Grade 3” value (human) was 1 (<1) n (%), the “Headache, Grade 4” value (human) was 0 n (%) and the “Hyperglycemia, Grade 1-2” value (human) was 15 (5) n (%). For the same compound, the “Hyperglycemia, Grade 3” value (human) was 2 (<1) n (%), the “Hyperglycemia, Grade 4” value (human) was 1 (<1) n (%) and the “Hypertension, Grade 1-2” value (human) was 73 (22) n (%). For the same compound, the “Hypertension, Grade 3” value (human) was 49 (15) n (%), the “Hypertension, Grade 4” value (human) was 0 n (%) and the “Hypertension, grade 3 or 4” value (human) was 49 [15%] n [%]. The “Hypertriglyceridemia, Grade 1-2” value (human) was 17 (5) n (%), the “Hypertriglyceridemia, Grade 3” value (human) was 4 (1) n (%) and the “Hypertriglyceridemia, Grade 4” value (human) was 0 n (%). For the same compound, the “Hypomagnesaemia, Grade 1-2” value (human) was 38 (12) n (%), the “Hypomagnesaemia, Grade 3” value (human) was 6 (2) n (%) and the “Hypomagnesaemia, Grade 4” value (human) was 10 (3) n (%). For the same compound, the “Hypothyroidism, Grade 1-2” value (human) was 76 (23) n (%), the “Hypothyroidism, Grade 3” value (human) was 0 n (%) and the “Hypothyroidism, Grade 4” value (human) was 0 n (%). The “Insomnia, Grade 1-2” value (human) was 32 (10) n (%), the “Insomnia, Grade 3” value (human) was 0 n (%) and the “Insomnia, Grade 4” value (human) was 0 n (%). For the same compound, the “Mucosal inflammation, Grade 1-2” value (human) was 60 (18) n (%), the “Mucosal inflammation, Grade 3” value (human) was 5 (2) n (%) and the “Mucosal inflammation, Grade 4” value (human) was 0 n (%). The “Muscle spasms, Grade 1-2” value (human) was 45 (14) n (%), the “Muscle spasms, Grade 3” value (human) was 0 n (%) and the “Muscle spasms, Grade 4” value (human) was 0 n (%). For the same compound, the “Nausea, Grade 1-2” value (human) was 158 (48) n (%), the “Nausea, Grade 3” value (human) was 15 (5) n (%) and the “Nausea, Grade 4” value (human) was 0 n (%). For the same compound, the “Nausea, all grades” value (human) was 173 (52%) n (%), the “Overall incidence of adverse events regardless of causality” value (human) was 100% and the “Pain in extremity, Grade 1-2” value (human) was 46 (14) n (%). For the same compound, the “Pain in extremity, Grade 3” value (human) was 5 (2) n (%), the “Pain in extremity, Grade 4” value (human) was 0 n (%) and the “Palmar-plantar erythrodysaesthesia syndrome, Grade 1-2” value (human) was 115 (35) n (%). For the same compound, the “Palmar-plantar erythrodysaesthesia syndrome, Grade 3” value (human) was 27 (8) n (%), the “Palmar-plantar erythrodysaesthesia syndrome, Grade 4” value (human) was 0 n (%) and the “Patients with dose reductions” value (human) was 62%. The “Proteinuria, Grade 1-2” value (human) was 37 (11) n (%), the “Proteinuria, Grade 3” value (human) was 8 (2) n (%) and the “Proteinuria, Grade 4” value (human) was 0 n (%). The “Pruritus, Grade 1-2” value (human) was 27 (8) n (%), the “Pruritus, Grade 3” value (human) was 0 n (%) and the “Pruritus, Grade 4” value (human) was 0 n (%). The “Pyrexia, Grade 1-2” value (human) was 31 (9) n (%), the “Pyrexia, Grade 3” value (human) was 3 (<1) n (%) and the “Pyrexia, Grade 4” value (human) was 0 n (%). The “Rash, Grade 1-2” value (human) was 52 (16) n (%), the “Rash, Grade 3” value (human) was 2 (<1) n (%) and the “Rash, Grade 4” value (human) was 0 n (%). For the same compound, the “Serious adverse events ≥grade 3” value (human) was 130 (40%) n (%), the “Stomatitis, Grade 1-2” value (human) was 65 (20) n (%) and the “Stomatitis, Grade 3” value (human) was 8 (2) n (%). For the same compound, the “Stomatitis, Grade 4” value (human) was 0 n (%), the “Study treatment discontinuation due to diarrhea” value (human) was 0.9% and the “Treatment discontinuation due to an adverse event not related to disease progression” value (human) was 12%. The “Vomiting, Grade 1-2” value (human) was 106 (32) n (%), the “Vomiting, Grade 3” value (human) was 7 (2) n (%) and the “Vomiting, Grade 4” value (human) was 0 n (%). The “Weight decreased, Grade 1-2” value (human) was 105 (32) n (%), the “Weight decreased, Grade 3” value (human) was 9 (3) n (%) and the “Weight decreased, Grade 4” value (human) was 0 n (%). For the same compound, the “Grade 5 adverse events assessed as treatment-related” value was “One”.

Reference: patent publication US11141413B2, “Method of treating renal cell carcinoma using N-(4-(6,7-dimethoxyquinolin-4-yloxy)phenyl)-N′-(4-fluorophenyl)cyclopropane-1,1-dicarboxamide, (2S)-hydroxybutanedioate” (Exelixis, Inc., priority 2016, dated 2021)
